Consider 1 compound from publication PMC13006724 (Clinical Pharmacology in Drug Development, 2026).

The conditions of the data set: human, in vivo, 400 mg. How it is done:
Urine PK parameters included cumulative urinary excretion from time zero to time t (Ae0‐t), maximum rate of urinary excretion (Rmax), time of maximum rate of urinary excretion (TRmax), and renal clearance (Clr). PK analyses were performed using Phoenix WinNonlin version 8.0, which was validated by Syneos Health.

`COc1c(N2C[C@@H]3CCCN[C@@H]3C2)c(F)cc2c(=O)c(C(=O)O)cn(C3CC3)c12` [Moxifloxacin]: the AUC0-inf is 28327.2 (4616.5) h*ng/mL.
